Experimental data from patent publication US20190345150A1, “MICROBIOCIDAL OXADIAZOLE DERIVATIVES” (SYNGENTA PARTICIPATIONS AG, priority 2016, published 2019).

Legend:
[1] = test system: Puccinia recondita f. Sp. Tritici; test: Puccinia recondita f. sp. tritici / wheat / leaf disc preventative (brown rust); assay type: in vivo; settings: foliar, 200 ppm in the applied formulation, wheat leaf segments cv. Kanzler, preventative (inoculated 1 day after application), compared to untreated control, read-out: disease control
Description: Leaf disks or leaf segments of various plant species are cut from plants grown in a greenhouse. The cut leaf disks or segments are placed in multiwell plates (24-well format) onto water agar. The leaf disks are sprayed with a test solution before (preventative) or after (curative) inoculation. Compounds to be tested are prepared as DMSO solutions (max. 10 mg/ml) which are diluted to the appropriate concentration with 0.025% Tween20 just before spraying. The inoculated leaf disks or segments are incubated under defined conditions (temperature, relative humidity, light, etc.) according to the respective test system. A single evaluation of disease level is carried out 3 to 14 days after inoculation, depending on the pathosystem. Percent disease control relative to the untreated check leaf disks or segments is then calculated. Wheat leaf segments cv. Kanzler were placed on agar in multiwell plates (24-well format) and sprayed with the formulated test compound diluted in water. The leaf disks were inoculated with a spore suspension of the fungus 1 day after application. The inoculated leaf segments were incubated at 19° C. and 75% relative humidity (rh) under a light regime of 12 hours light/12 hours darkness in a climate cabinet and the activity of a compound was assessed as percent disease control compared to untreated when an appropriate level of disease damage appears in untreated check leaf segments (7 to 9 days after application).

[2] = test system: Glomerella laqenarium (Colletotrichum laqenarium); test: Glomerella lagenarium liquid culture / cucumber / preventative (anthracnose); assay type: cell-based; settings: 20 ppm in the applied formulation, liquid culture in PDB, growth inhibition measured photometrically 3 to 4 days after application, compared to untreated control, read-out: disease control
Description: Mycelia fragments or conidia suspensions of a fungus prepared either freshly from liquid cultures of the fungus or from cryogenic storage, are directly mixed into nutrient broth. DMSO solutions of the test compound (max. 10 mg/ml) are diluted with 0.025% Tween20 by a factor of 50 and 10 μl of this solution is pipetted into a microtiter plate (96-well format). The nutrient broth containing the fungal spores/mycelia fragments is then added to give an end concentration of the tested compound. The test plates are incubated in the dark at 24° C. and 96% relative humidity. The inhibition of fungal growth is determined photometrically after 2 to 7 days, depending on the pathosystem, and percent antifungal activity relative to the untreated check is calculated. Conidia of the fungus from cryogenic storage are directly mixed into nutrient broth (PDB—potato dextrose broth). After placing a (DMSO) solution of test compound into a microtiter plate (96-well format), the nutrient broth containing the fungal spores is added. The test plates are incubated at 24° C. and the inhibition of growth is measured photometrically 3 to 4 days after application.

[3] = test system: Puccinia recondita f. Sp. Tritici; test: Puccinia recondita f. sp. tritici / wheat / leaf disc curative (brown rust); assay type: in vivo; settings: foliar, 24 h, 200 ppm in the applied formulation, wheat leaf segments cv. Kanzler, curative (applied 1 day after inoculation), compared to untreated control, read-out: disease control
Description: Leaf disks or leaf segments of various plant species are cut from plants grown in a greenhouse. The cut leaf disks or segments are placed in multiwell plates (24-well format) onto water agar. The leaf disks are sprayed with a test solution before (preventative) or after (curative) inoculation. Compounds to be tested are prepared as DMSO solutions (max. 10 mg/ml) which are diluted to the appropriate concentration with 0.025% Tween20 just before spraying. The inoculated leaf disks or segments are incubated under defined conditions (temperature, relative humidity, light, etc.) according to the respective test system. A single evaluation of disease level is carried out 3 to 14 days after inoculation, depending on the pathosystem. Percent disease control relative to the untreated check leaf disks or segments is then calculated. Wheat leaf segments cv. Kanzler are placed on agar in multiwell plates (24-well format). The leaf segments are then inoculated with a spore suspension of the fungus. Plates were stored in darkness at 19° C. and 75% relative humidity. The formulated test compound diluted in water was applied 1 day after inoculation. The leaf segments were incubated at 19° C. and 75% relative humidity under a light regime of 12 hours light/12 hours darkness in a climate cabinet and the activity of a compound was assessed as percent disease control compared to untreated when an appropriate level of disease damage appears in untreated check leaf segments (6 to 8 days after application).

| melting point [°C] | Structure (SMILES) | pest or weed control at 200 ppm [1] [%] | inhibition of growth at 20 ppm [2] [%] | pest or weed control at 200 ppm [3] [%] |
| --- | --- | --- | --- | --- |
|  | CC(=O)OCc1ccc(-c2noc(C(F)(F)F)n2)cc1 [Compound 2.1, [4-[5-(trifluoromethyl)-1,2,4-oxadiazol-3-yl]phenyl]methyl acetate] | ≥ 80 | ≥ 80 |  |
|  | CON(C)C(=O)OCc1ccc(-c2noc(C(F)(F)F)n2)cc1 [Compound 3.4, [4-[5-(trifluoromethyl)-1,2,4-oxadiazol-3-yl]phenyl]methyl N-methoxy-N-methyl-carbamate] |  | ≥ 80 |  |
| 48 to 52 | CC(C)=NOCc1ccc(-c2noc(C(F)(F)F)n2)cc1 [Compound 4.1, N-[[4-[5-(trifluoromethyl)-1,2,4-oxadiazol-3-yl]phenyl]methoxy]propan-2-imine] |  |  | ≥ 80 |
| 156 to 158 | N#Cc1ccc(OCc2ccc(-c3noc(C(F)(F)F)n3)cc2)nc1 [Compound 1.14, 6-[[4-[5-(trifluoromethyl)-1,2,4-oxadiazol-3-yl]phenyl]methoxy]pyridine-3-carbonitrile] | ≥ 80 | ≥ 80 |  |
|  | CC(C)(C)C(=O)OCc1ccc(-c2noc(C(F)(F)F)n2)cc1 [Compound 2.3, [4-[5-(trifluoromethyl)-1,2,4-oxadiazol-3-yl]phenyl]methyl 2,2-dimethylpropanoate] |  | ≥ 80 |  |
|  | Cc1nnc(OCc2ccc(-c3noc(C(F)(F)F)n3)cc2)o1 [Compound 1.20, 2-methyl-5-[[4-[5-(trifluoromethyl)-1,2,4-oxadiazol-3-yl]phenyl]methoxy]-1,3,4-oxadiazole] |  | ≥ 80 |  |
| 100 to 102 | CNC(=O)OCc1ccc(-c2noc(C(F)(F)F)n2)cc1 [Compound 3.7, [4-[5-(trifluoromethyl)-1,2,4-oxadiazol-3-yl]phenyl]methyl N-methylcarbamate] |  |  |  |
| 105 to 107 | FC(F)(F)c1nc(-c2ccc(COc3ccccc3)cc2)no1 [Compound 1.7, 3-[4-(phenoxymethyl)phenyl]-5-(trifluoromethyl)-1,2,4-oxadiazole] |  |  | ≥ 80 |
| 86 to 88 | FC(F)(F)c1nc(-c2ccc(COc3ccccn3)cc2)no1 [Compound 1.9, 3-[4-(2-pyridyloxymethyl)phenyl]-5-(trifluoromethyl)-1,2,4-oxadiazole] | ≥ 80 | ≥ 80 | ≥ 80 |
|  | CC1(C)CC(OCc2cc(F)c(-c3noc(C(F)(F)F)n3)c(F)c2)=NO1 [Compound 1.26, 3-[4-[(5,5-dimethyl-4H-isoxazol-3-yl)oxymethyl]-2,6-difluoro-phenyl]-5-(trifluoromethyl)-1,2,4-oxadiazole] | ≥ 80 | ≥ 80 | ≥ 80 |
| 174 to 176 | Fc1ccc(OCc2ccc(-c3noc(C(F)(F)F)n3)cc2)cc1 [Compound 1.6, 3-[4-[(4-fluorophenoxy)methyl]phenyl]-5-(trifluoromethyl)-1,2,4-oxadiazole] |  |  | ≥ 80 |
| 65 to 66 | Cc1cccc(OCc2cc(F)c(-c3noc(C(F)(F)F)n3)c(F)c2)n1 [Compound 1.25, 3-[2,6-difluoro-4-[(6-methyl-2-pyridyl)oxymethyl]phenyl]-5-(trifluoromethyl)-1,2,4-oxadiazole] |  | ≥ 80 |  |
| 110 to 111 | CC1=NN(C)C(=O)C1=NOCc1ccc(-c2noc(C(F)(F)F)n2)cc1 [Compound 4.4, 2,5-dimethyl-4-[[4-[5-(trifluoromethyl)-1,2,4-oxadiazol-3-yl]phenyl]methoxyimino]pyrazol-3-one] |  | ≥ 80 |  |
| 141 to 143 | Cc1ccc(OCc2ccc(-c3noc(C(F)(F)F)n3)cc2)nc1 [Compound 1.15, 3-[4-[(5-methyl-2-pyridyl)oxymethyl]phenyl]-5-(trifluoromethyl)-1,2,4-ioxadiazole] |  |  | ≥ 80 |
|  | O=C(NCC(F)(F)F)OCc1ccc(-c2noc(C(F)(F)F)n2)cc1 [Compound 3.3, [4-[5-(trifluoromethyl)-1,2,4-oxadiazol-3-yl]phenyl]methyl N-(2,2,2-trifluoroethyl)carbamate] | ≥ 80 | ≥ 80 | ≥ 80 |
|  | CC(OC(=O)N(C)C)c1ccc(-c2noc(C(F)(F)F)n2)cc1 (stereo not shown) [Compound 3.5, 1-[4-[5-(trifluoromethyl)-1,2,4-oxadiazol-3-yl]phenyl]ethyl N,N-dimethylcarbamate] | ≥ 80 | ≥ 80 | ≥ 80 |
| 91 to 94 | Cc1cccc(OCc2cc(F)c(-c3noc(C(F)(F)F)n3)cc2F)n1 [Compound 1.27, 3-[2,5-difluoro-4-[(6-methyl-2-pyridyl)oxymethyl]phenyl]-5-(trifluoromethyl)-1,2,4-oxadiazole] |  |  |  |
| 48 to 50 | CC(C)C(=O)OCc1ccc(-c2noc(C(F)(F)F)n2)cc1 [Compound 2.2, [4-[5-(trifluoromethyl)-1,2,4-oxadiazol-3-yl]phenyl]methyl 2-methylpropanoate] |  | ≥ 80 |  |
| 113 to 115 | Fc1c(COc2ccccc2)ccc(-c2noc(C(F)(F)F)n2)c1F [Compound 1.12, 3-[2,3-difluoro-4-(phenoxymethyl)phenyl]-5-(trifluoromethyl)-1,2,4-oxadiazole] |  |  |  |
|  | FC(F)(F)c1nc(-c2ccc(COc3ccc(Br)nn3)cc2)no1 [Compound 1.21, 3-[4-[(6-bromopyridazin-3-yl)oxymethyl]phenyl]-5-(trifluoromethyl)-1,2,4-oxadiazole] |  | ≥ 80 |  |
| 110 to 112 | CN(C(=O)OCc1ccc(-c2noc(C(F)(F)F)n2)cc1)c1ccccn1 [Compound 3.6, [4-[5-(trifluoromethyl)-1,2,4-oxadiazol-3-yl]phenyl]methyl N-methyl-N-(2-pyridyl)carbamate] |  |  |  |
| 66 to 68 | Fc1cccc(F)c1OCc1ccc(-c2noc(C(F)(F)F)n2)cc1 [Compound 1.10, 3-[4-[(2,6-difluorophenoxy)methyl]phenyl]-5-(trifluoromethyl)-1,2,4-oxadiazole] |  |  | ≥ 80 |
|  | Cc1cccc(OC(C)c2ccc(-c3noc(C(F)(F)F)n3)cc2)n1 (stereo not shown) [Compound 1.24, 3-[4-[1-[(6-methyl-2-pyridyl)oxy]ethyl]phenyl]-5-(trifluoromethyl)-1,2,4-oxadiazole] |  | ≥ 80 |  |
